Among the test systems are COLO 205 colon; IGROV1 ovarian; SF-268 CNS; HOP-62 NSCLC; SK-MEL-28 melanoma; NCI-H460 lung; HL-60(TB) leukemia; K-562 leukemia; LOX IMVI melanoma; OVCAR-8 ovarian.
Common to all, as to assay: DTP human tumour cell line panel, 48 h

SMILES strings stand for the structures.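 A five-concentration, 48-hour dose response in 96-well plates underlies each endpoint, interpolated linearly between surrounding concentrations. The concentration for 50% growth inhibition is given as GI50. The concentration for full growth arrest is given as TGI.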

The TGI is the concentration at which net growth stops. Read a low TGI as more potent growth arrest. `CNc1cc2oc(=O)cc(C)c2cc1C`: the TGI in the experiment with COLO 205 colon, in the experiment on IGROV1 ovarian, in the experiment with SF-268 CNS, with HOP-62 NSCLC, in the experiment with SK-MEL-28 melanoma and in the experiment on NCI-H460 lung was greater than 100 µM in each case. Moreover, the TGI in the experiment on HL-60(TB) leukemia, with K-562 leukemia, with LOX IMVI melanoma and in the experiment on OVCAR-8 ovarian was greater than 100 µM in each case.

On to `CSC[C@H](NC(=O)COc1cccc2cnccc12)C(=O)NC(Cc1ccccc1)C(O)C(=O)N1CSC[C@H]1C(=O)NC(C)(C)C` (stereo not given in full), for which the TGI in the experiment with COLO 205 colon was greater than 100 µM; in the experiment on IGROV1 ovarian, greater than 100 µM; in the experiment on SF-268 CNS, 63 µM; with HOP-62 NSCLC, greater than 100 µM; in the experiment with SK-MEL-28 melanoma it was greater than 100 µM; in the experiment on NCI-H460 lung, greater than 100 µM. Moreover, the TGI in the experiment with HL-60(TB) leukemia is 91.4 µM; in the experiment with K-562 leukemia, greater than 100 µM; with LOX IMVI melanoma it was greater than 100 µM; in the experiment with OVCAR-8 ovarian it was greater than 100 µM.

By GI50 is commonly meant the concentration that inhibits growth by half. Consider `COc1ccc(Cl)cc1NC(=O)c1ccc(NC2=C(Cl)C(=O)N(Cc3ccccc3)C2=O)cc1`, for which the GI50 with COLO 205 colon is greater than 100 µM; in the experiment with IGROV1 ovarian, greater than 100 µM; with SF-268 CNS, 25.3 µM; in the experiment with HOP-62 NSCLC, greater than 100 µM; with SK-MEL-28 melanoma, greater than 100 µM; in the experiment on NCI-H460 lung, 9.41 µM. Further, the GI50 with HL-60(TB) leukemia was 9.51 µM; with K-562 leukemia it was 6.87 µM; in the experiment with LOX IMVI melanoma it was 8.5 µM; in the experiment with OVCAR-8 ovarian, 19.4 µM. The TGI in the experiment on COLO 205 colon, in the experiment with IGROV1 ovarian, in the experiment on SF-268 CNS, in the experiment on HOP-62 NSCLC, in the experiment on SK-MEL-28 melanoma and in the experiment on NCI-H460 lung was greater than 100 µM each time. Also, the TGI in the experiment with HL-60(TB) leukemia was 55.3 µM; with K-562 leukemia, greater than 100 µM; with LOX IMVI melanoma, greater than 100 µM; with OVCAR-8 ovarian it was greater than 100 µM.

Consider `O=C(Nc1nc(-c2c[nH]c3ccccc23)cs1)c1n[nH]c(=O)c2ccccc12`, for which the GI50 in the experiment with COLO 205 colon was 2.47 µM; in the experiment with IGROV1 ovarian, 2.01 µM; with SF-268 CNS, 1.25 µM; with HOP-62 NSCLC it was 3.72 µM; in the experiment with SK-MEL-28 melanoma it was 12.4 µM; with NCI-H460 lung, 0.451 µM. For the same compound, the GI50 with HL-60(TB) leukemia was 0.777 µM; with K-562 leukemia, 1.27 µM; in the experiment with LOX IMVI melanoma it was 0.644 µM; in the experiment with OVCAR-8 ovarian, 2.26 µM. The TGI was greater than 60.1 µM in the experiment with COLO 205 colon; 34.7 µM in the experiment on IGROV1 ovarian; greater than 46.2 µM with SF-268 CNS; 26.6 µM with HOP-62 NSCLC; 49.2 µM with SK-MEL-28 melanoma; greater than 36.8 µM in the experiment on NCI-H460 lung. Further, the TGI was greater than 100 µM in the experiment on HL-60(TB) leukemia, greater than 100 µM in the experiment with K-562 leukemia, 17.9 µM in the experiment on LOX IMVI melanoma and greater than 67.6 µM with OVCAR-8 ovarian.

Consider `COc1ccc(-c2c(C#N)c(N3CCOCC3)nc3[nH]c(=S)[nH]c(=S)c23)cc1OC`, for which the GI50 in the experiment on COLO 205 colon is 66.8 µM; in the experiment with IGROV1 ovarian it was greater than 100 µM; with SF-268 CNS, 31.6 µM; in the experiment with HOP-62 NSCLC, 83.2 µM; with SK-MEL-28 melanoma, greater than 100 µM; in the experiment on NCI-H460 lung, 27.7 µM. Further, the GI50 was 36.2 µM with HL-60(TB) leukemia, 36.7 µM with K-562 leukemia, 16.7 µM with LOX IMVI melanoma and 34.5 µM in the experiment with OVCAR-8 ovarian. Also, the TGI in the experiment with COLO 205 colon, with IGROV1 ovarian, in the experiment on SF-268 CNS, in the experiment on HOP-62 NSCLC, in the experiment on SK-MEL-28 melanoma and in the experiment with NCI-H460 lung was greater than 100 µM each time. The TGI with HL-60(TB) leukemia was greater than 100 µM; with K-562 leukemia, greater than 100 µM; with LOX IMVI melanoma it was 60.9 µM; with OVCAR-8 ovarian it was greater than 100 µM.

`O=C1C/C(Br)=C\c2ccccc2-c2ccccc21`: the TGI with COLO 205 colon worked out at 12.4 µM; in the experiment with IGROV1 ovarian, 9.02 µM; in the experiment on SF-268 CNS, 8.39 µM; in the experiment with HOP-62 NSCLC, 9.67 µM; with SK-MEL-28 melanoma it was 2.8 µM; in the experiment with NCI-H460 lung it was 10.4 µM. The TGI in the experiment on HL-60(TB) leukemia is 5.7 µM; in the experiment with K-562 leukemia, 9.65 µM; with LOX IMVI melanoma it was 2.43 µM; with OVCAR-8 ovarian, 5.41 µM.

Consider `COc1cc2c3c(n(C)c(=O)c2cc1OC)-c1cc2c(cc1C3=O)OCO2`, for which the TGI with COLO 205 colon was greater than 100 µM; in the experiment with IGROV1 ovarian, 40.9 µM; in the experiment on SF-268 CNS, greater than 100 µM; with HOP-62 NSCLC, greater than 55 µM; with SK-MEL-28 melanoma, greater than 100 µM; with NCI-H460 lung, greater than 100 µM. Besides, the TGI in the experiment with HL-60(TB) leukemia is greater than 100 µM; in the experiment on K-562 leukemia, greater than 92.2 µM; in the experiment on LOX IMVI melanoma, greater than 73 µM; with OVCAR-8 ovarian, greater than 100 µM.

Consider `COc1cc2c(cc1OCCCN1CCN(CCCOc3cc4c(cc3OC)C(=O)N3CC(F)(F)C[C@H]3C=N4)CC1)N=C[C@@H]1CC(F)(F)CN1C2=O`, for which the GI50 in the experiment with COLO 205 colon is 3.09 µM; with IGROV1 ovarian, 1.92 µM; with SF-268 CNS, 3.57 µM; in the experiment on HOP-62 NSCLC, 3.17 µM; in the experiment on SK-MEL-28 melanoma, 4.28 µM; with NCI-H460 lung, 2.6 µM. The GI50 in the experiment on HL-60(TB) leukemia was 1.18 µM; in the experiment with K-562 leukemia, 1.74 µM; with LOX IMVI melanoma, 1.89 µM; in the experiment on OVCAR-8 ovarian it was 6.3 µM. Moreover, the TGI is 10.2 µM with COLO 205 colon; 5.13 µM in the experiment with IGROV1 ovarian; 14.5 µM in the experiment on SF-268 CNS; 6.07 µM with HOP-62 NSCLC; 15.2 µM in the experiment with SK-MEL-28 melanoma; 15.6 µM with NCI-H460 lung. Also, the TGI is 5.06 µM in the experiment with HL-60(TB) leukemia, greater than 100 µM in the experiment with K-562 leukemia, 4.83 µM in the experiment with LOX IMVI melanoma and 26.7 µM with OVCAR-8 ovarian.

Take `CC[C@]1(O)C[C@H]2CN(CCc3c([nH]c4ccccc34)C(C(=O)OC)(c3cc4c(cc3OC)N(C)[C@H]3[C@@](O)(C(=O)OC)[C@H](OC(C)=O)[C@]5(CC)[C@@H]6C[C@@H]6CN6CC[C@]43[C@@H]65)C2)C1` (stereo not given in full): the GI50 with COLO 205 colon is 0.00246 µM; in the experiment on IGROV1 ovarian it was 0.00812 µM; in the experiment with SF-268 CNS, 0.0145 µM; in the experiment with HOP-62 NSCLC it was 0.00365 µM; with SK-MEL-28 melanoma, 0.00305 µM; in the experiment on NCI-H460 lung it was 0.00426 µM. Also, the GI50 in the experiment on HL-60(TB) leukemia is 0.0034 µM; with K-562 leukemia it was 0.00266 µM; in the experiment on LOX IMVI melanoma, 0.00273 µM; with OVCAR-8 ovarian it was 0.00688 µM. In addition, the TGI in the experiment with COLO 205 colon is 0.00937 µM; with IGROV1 ovarian, 5.11 µM; with SF-268 CNS it was 10.4 µM; in the experiment with HOP-62 NSCLC, greater than 9.22 µM; with SK-MEL-28 melanoma, greater than 14.3 µM; with NCI-H460 lung it was greater than 4.61 µM. Besides, the TGI with HL-60(TB) leukemia is 0.0108 µM; in the experiment with K-562 leukemia it was 2.82 µM; in the experiment with LOX IMVI melanoma, greater than 10.3 µM; with OVCAR-8 ovarian, 0.168 µM.
